How the values were obtained:
[1] = parameters: species or system human; details: in vivo, 1.5 mg/kg
Text: In accordance with the present invention, the solid food to be checked and swallowed as the meal for a gastric emptying test is in the form of an edible, egg fortified muffin from a microwaveable recipe, freshly prepared prior to use. The base formulation consists of a bulk mix containing 92 grams of powdered, defatted milk; 320 grams of apple flavored instant muffin mix, 80 grams of finely grated Parmesan cheese and 0.6 gram of pulverized L-2-oxo[^13C]thiazolidine-4-carboxylic acid (OTZ) tracer probe. The mixture is homogenized in a food mill and stored in individual portions of 61.625 grams. Prior to cooking, the individual muffin mix is reconstituted in a microwaveable plastic dish with 110 ml of water and 61 grams of defatted egg substitute and then thoroughly blended and allowed to stand covered for 0.5 hour at room temperature. After shaking well, the mixture is uncovered and microwaved in a 500 watt oven for 4 minutes at medium power, rotated 120 degrees, and again microwaved for 4 minutes. The muffin is loosened around the edges, allowed to cool, and removed from the cooking container. […]
The samples are analyzed for isotopic content and corrected for interindividual differences in endogenous CO2 production rate in order to obtain the appropriate data points. […]

[2] = tested on: gastric emptying; assay: Breath test with liquid test meal given with drugs known to accelerate or delay gastric emptying (FIG. 6); type: in vivo, human; details: [acyl]^13C-leucine as emptying probe
Text: In FIG. 6 summarizing this experiment, metoclopramide is shown as a prokinetic agent. Similarly, loperamide is shown to delay emptying.

| Absorption kinetics from appearance pattern of ^13CO2 in breath [1] | T1/2 (half-emptying time) [1] | Structure (SMILES) | Effect on gastric emptying [2] |
| --- | --- | --- | --- |
| zero-order absorption kinetics | 19 +/− 4 | O=C(O)[C@@H]1CS[13C](=O)N1 [2-[^13C -OTZ, L-2-oxo[^13C]thiazolidine-4-carboxylic acid] | – |
| – | – | CCN(CC)CCNC(=O)c1cc(Cl)c(N)cc1OC [Metoclopramide, metoclopramide] | accelarated the gastric emptying profile in a statistically significant manner |
| – | – | CN(C)C(=O)C(CCN1CCC(O)(c2ccc(Cl)cc2)CC1)(c1ccccc1)c1ccccc1 [loperamide] | emptying times trending toward greater than normal half-emptying values |
